Test results as given in US4851572A, “γ-L-glutamyl-4-nitroanilide derivatives and process for determining γ-GTP activity using the same” (Wako Pure Chemical Industries, Ltd., priority 1987, dated 1989).
Converted amounts (≈) assume the structure as drawn. Like-named read-outs stand apart in the source and are kept apart here.

Experiments:
γ-GTP (human serum) [1] = biological target: T1, γ-GTP (human serum) (Homo sapiens, UniProt P19440); test: Measurement of γ-GTP activity with the substrate, human serum sample (rate assay, 410 nm); type: biochemical; details: relative to Comparative Example 1 taken as 100, 37° C., 5 min
T1 construct: As samples, there were used human serum; from tissue; host or cells: human serum
Protocol: (§1) Measurement of γ-GTP activity
(§2) 100 Millimols of tris(hydroxymethyl)aminomethane and 60 mmols of glycylglycine were added in 800 ml of deionized water, and pH of its solution was adjusted to 8.2 (at 25° C.) with hydrochloric acid, after which the resulting solution was made up to 1 liter with deionized water.
(§3) In deionized water was dissolved 15 mmols of the γ-L-glutamyl-3-hydroxymethyl-4-nitroanilide obtained in Example 1 to make a total volume of 1 liter.
(§4) As samples, there were used human serum and 7% aqueous bovine albumin solutions containing γ-GTP derived from porcine kidney or bovine kidney (hereinafter abbreviated as parcine sample and bovine sample, respectively).
(§5) To 50 μl of each sample was added 2.0 ml of the buffer solution .circle.1 , followed by preincubation at 37° C. for 3 minutes, and 0.5 ml of the substrate solution .circle.2 was added. After sufficient mixing, the resulting mixture was allowed to stand for 1 minute, after which the increase rate of absorbance at 410 nm was measured, and the γ-GTP activity value (IU/l) in the sample was calculated from the molecular absorption coefficient (7.6×10^6 cm^2 /mol) of 3-hydroxymethyl-4-nitroaniline generated.
(§6) 100 mmols of tris(hydroxymethyl)aminomethane and 60 mmols of glycylglycine were added in 800 ml of deionized water, and pH of its solution was adjusted to 8.2 (at 25° C.) with hydrochloric acid, after which the resulting solution was made up to 1 liter with deionized water.
(§7) In deionized water was dissolved 15 mmols of the γ-L-glutamyl-3-(β-hydroxyethyl)-4-nitroanilide obtained in Example 3 to make a total volume of 1 liter.
(§8) The same samples as in Example 5 were used.
as §5, with “(7.3×10^6” for “(7.6×10^6”, “3-(β-hydroxyethyl)-4-nitroaniline” for “3-hydroxymethyl-4-nitroaniline”, “generated. […]” for “generated.”
as §5, with “(8.8×10^6” for “(7.6×10^6”, “p-nitroaniline” for “3-hydroxymethyl-4-nitroaniline”, “generated. […]” for “generated.”

[2] = biological target: T2, γ-GTP derived from porcine kidney (Sus scrofa, UniProt P20735); test: Measurement of γ-GTP activity with the substrate, porcine sample (rate assay, 410 nm); type: biochemical; details: relative to Comparative Example 1 taken as 100, 37° C., 5 min
T2 construct: γ-GTP derived from porcine kidney or bovine kidney; from tissue; host or cells: porcine kidney
Protocol: as §1, §2, §3, §4, §5, §6, §7, §8
as §5, with “(7.3×10^6” for “(7.6×10^6”, “3-(β-hydroxyethyl)-4-nitroaniline” for “3-hydroxymethyl-4-nitroaniline”, “generated. […]” for “generated.”
as §5, with “(8.8×10^6” for “(7.6×10^6”, “p-nitroaniline” for “3-hydroxymethyl-4-nitroaniline”, “generated. […]” for “generated.”

[3] = biological target: T3, γ-GTP derived from bovine kidney (Bos taurus, UniProt G3N2D8); test: Measurement of γ-GTP activity with the substrate, bovine sample (rate assay, 410 nm); type: biochemical; details: relative to Comparative Example 1 taken as 100, 37° C., 5 min
T3 construct: γ-GTP derived from porcine kidney or bovine kidney; from tissue; host or cells: bovine kidney
Protocol: as §1, §2, §3, §4, §5, §6, §7, §8
as §5, with “(7.3×10^6” for “(7.6×10^6”, “3-(β-hydroxyethyl)-4-nitroaniline” for “3-hydroxymethyl-4-nitroaniline”, “generated. […]” for “generated.”
as §5, with “(8.8×10^6” for “(7.6×10^6”, “p-nitroaniline” for “3-hydroxymethyl-4-nitroaniline”, “generated. […]” for “generated.”

γ-GTP = test: Difference in reactivity with γ-GTPs derived from various sources (human serum, porcine, bovine); type: biochemical; details: for Difference between max. and min. activity values: human serum, porcine and bovine samples, relative values, Comparative Example 1 = 100
Protocol: as §4, §5
as §5, with “(7.3×10^6” for “(7.6×10^6”, “3-(β-hydroxyethyl)-4-nitroaniline” for “3-hydroxymethyl-4-nitroaniline”
as §5, with “(8.8×10^6” for “(7.6×10^6”, “p-nitroaniline” for “3-hydroxymethyl-4-nitroaniline”
as §5, with “subdrate” for “substrate”, “([…]” for “(7.6×10^6 cm^2”, “3-carboxy-4-nitroaniline” for “3-hydroxymethyl-4-nitroaniline”
In Table 1, the values of Comparative Example 2 and Examples 5 and 6 are relative γ-GTP activity values taking those of Comparative Example 1 as 100. The γ-GTP activity values (IU/l) were calculated from an absorbance change (ΔE/5 min) at 410 nm for 5 minutes after initiation of the reaction.

[4] = Solubility of the substrates in reagent solutions; type: physicochemical; details: pH 8.2, reagent solution (buffer:substrate solution 4:1)
Source text: In Table 2 are shown the solubility of the substrates for measuring γ-GTP activity used in Examples 5 and 6 and Comparative Examples 1 and 2 in reagent solutions (reagent solutions being obtained by mixing each buffer solution and each substrate solution in the ratio of 4:1), and the results of stability test on the substrate solutions in the individual cases.

γ-GTP (human sera) = biological target: T4, γ-GTP (human sera) (Homo sapiens, UniProt P19440); test: Measurement of γ-GTP activity in human sera with Hitachi automatic analyzer Model 7150 (precision, correlation); type: biochemical; details: for Average values (measured values of human sera): n=50 human sera; for Average / Coefficient of variation (C.V.) / Maximum / Minimum: within-run precision
T4 construct: heavy and light chain from one precursor), not purified
Protocol: (§9) The buffer solution prepared in Example 5 was used.
(§10) In deionized water was dissolved 10 mmols of the γ-L-glutamyl-3-hydroxymethyl-4-nitroanilide obtained in Example 4 to make a total volume of 1 liter.
Fifty human sera were used as samples.
The buffer solution prepared in Comparative Example 2 was used.
The substrate solution prepared in Comparative Example 2 was used.
The same samples as in Example 7 were used.
Measurement was carried out under the same conditions as in Example 7, except that among CHEMISTRY PARAMETERS in Table 4, R1 VOLUME was changed to [320][100][NO], […] to [80][20][NO], and K FACTOR to 7123 (ε=9.5).
0.125M Tris-HCL buffer (pH 7.8, at 37° C., containing 96 mM glycylglycine and 13 mM magnesium chloride).
A 0.1N hydrochloric acid solution containing 20 mM of γ-L-glutamyl-4-nitroanilide.
Measurement was carried out under the same conditions as in Example 7, except that among CHEMISTRY PARAMETERS in Table 4, K FACTOR was changed to 6835 (ε=9.90).
In FIG. 1 is shown the correlation of the values measured for the individual human sera in Example 7 with those in Comparative Example 3. The coefficient of correlation, the regression equation, and the like, obtained by statistical processing, etc. are shown below.
In FIG. 2 is shown the correlation of the values measured for the individual human sera in Example 7 with those in Comparative Example 4. The coefficient of correlation, the regression equation, and the like, obtained by statistical processing, etc. are shown below.

[5] = background statement, cited from earlier work
γ-GTP (human serum) [6] = biological target: T1, γ-GTP (human serum); details: reported by Leslie M. Shaw (Clinical Chemistry, 23, 79 (1977)); cited from earlier work
γ-GTP (porcine kidney) [7] = details: reported by Leslie M. Shaw (Clinical Chemistry, 23, 79 (1977)); cited from earlier work
γ-GTP (porcine kidney) [8] = test: Km value, γ-GTP from porcine kidney; type: biochemical
Source text: (§11) In Table 3 are shown the results of measuring, by a conventional method, Km values of γ-L-glutamyl-3-hydroxymethyl-4-nitroanilide, which is a compound of this invention, for each of γ-GTPs derived from human serum, porcine kidney and bovine kidney.
In Table 3 are also shown, for reference, Km values of γ-L-glutamyl-3-carboxy-4-nitroanilide and γ-L-glutamyl-p-nitroanilide reported by Leslie M. Shaw (Clinical Chemistry, 23, 79 (1977)).

γ-GTP (bovine kidney) = test: Km value, γ-GTP from bovine kidney; type: biochemical
Source text: as §11

[9] = biological target: T2, γ-GTP derived from porcine kidney; test: Calibration curve linearity with γ-GTP derived from porcine kidney in 7% aqueous bovine albumin solution; type: biochemical; details: 7% aqueous bovine albumin solution containing porcine kidney γ-GTP
Protocol: as §9, §10

[10] = suitable pH range for determining γ-GTP activity; background statement; cited from earlier work

T3 sequence (G3N2D8 1-379 limits assumed): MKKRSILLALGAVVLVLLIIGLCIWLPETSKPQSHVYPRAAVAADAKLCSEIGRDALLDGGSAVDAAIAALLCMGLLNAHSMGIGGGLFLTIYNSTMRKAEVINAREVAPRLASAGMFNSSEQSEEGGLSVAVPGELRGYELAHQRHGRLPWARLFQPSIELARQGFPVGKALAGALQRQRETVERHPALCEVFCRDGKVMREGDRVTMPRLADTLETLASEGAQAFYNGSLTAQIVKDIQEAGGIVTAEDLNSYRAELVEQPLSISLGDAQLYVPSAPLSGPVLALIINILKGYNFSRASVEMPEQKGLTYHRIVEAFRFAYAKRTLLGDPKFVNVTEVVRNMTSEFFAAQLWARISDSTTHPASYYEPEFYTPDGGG
T3 sequence (G3N2D8 380-568 limits assumed): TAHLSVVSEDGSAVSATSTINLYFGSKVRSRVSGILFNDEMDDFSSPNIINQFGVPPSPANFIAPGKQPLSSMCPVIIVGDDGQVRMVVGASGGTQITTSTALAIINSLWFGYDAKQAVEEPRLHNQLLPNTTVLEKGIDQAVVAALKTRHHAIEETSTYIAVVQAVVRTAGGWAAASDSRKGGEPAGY
T1 sequence (P19440 1-380 limits assumed): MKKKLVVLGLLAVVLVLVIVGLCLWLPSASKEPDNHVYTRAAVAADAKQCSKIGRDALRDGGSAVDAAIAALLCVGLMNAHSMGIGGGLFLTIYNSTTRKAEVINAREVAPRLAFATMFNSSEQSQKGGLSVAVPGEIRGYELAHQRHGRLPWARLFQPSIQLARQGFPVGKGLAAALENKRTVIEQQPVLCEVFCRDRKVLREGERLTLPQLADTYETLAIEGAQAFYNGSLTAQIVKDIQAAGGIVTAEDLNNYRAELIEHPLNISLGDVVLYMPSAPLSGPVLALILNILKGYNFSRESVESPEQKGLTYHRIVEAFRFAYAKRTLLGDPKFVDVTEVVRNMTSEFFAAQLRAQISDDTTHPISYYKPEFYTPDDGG
T1 sequence (P19440 381-569 limits assumed): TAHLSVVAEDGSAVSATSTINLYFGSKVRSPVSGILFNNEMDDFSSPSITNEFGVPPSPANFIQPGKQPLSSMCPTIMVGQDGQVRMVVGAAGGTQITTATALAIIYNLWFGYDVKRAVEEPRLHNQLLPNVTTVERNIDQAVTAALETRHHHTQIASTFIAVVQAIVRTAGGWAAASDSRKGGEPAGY
T2 sequence (P20735 1-379 limits assumed): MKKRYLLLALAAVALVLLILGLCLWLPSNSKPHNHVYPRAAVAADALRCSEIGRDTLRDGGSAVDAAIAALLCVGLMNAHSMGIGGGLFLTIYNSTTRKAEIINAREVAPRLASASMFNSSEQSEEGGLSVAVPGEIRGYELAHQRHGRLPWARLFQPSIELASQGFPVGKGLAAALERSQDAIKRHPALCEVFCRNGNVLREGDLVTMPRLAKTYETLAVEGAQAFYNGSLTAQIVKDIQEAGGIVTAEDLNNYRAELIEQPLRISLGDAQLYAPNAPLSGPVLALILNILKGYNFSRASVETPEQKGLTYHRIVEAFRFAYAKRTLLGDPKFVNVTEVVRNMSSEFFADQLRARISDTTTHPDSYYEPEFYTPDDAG
T2 sequence (P20735 380-568 limits assumed): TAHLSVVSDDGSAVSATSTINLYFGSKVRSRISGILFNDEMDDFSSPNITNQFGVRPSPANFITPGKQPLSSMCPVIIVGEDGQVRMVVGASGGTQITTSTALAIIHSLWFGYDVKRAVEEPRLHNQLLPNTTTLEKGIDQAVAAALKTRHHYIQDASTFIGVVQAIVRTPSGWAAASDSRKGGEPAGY
T4 sequence (P19440 whole entry): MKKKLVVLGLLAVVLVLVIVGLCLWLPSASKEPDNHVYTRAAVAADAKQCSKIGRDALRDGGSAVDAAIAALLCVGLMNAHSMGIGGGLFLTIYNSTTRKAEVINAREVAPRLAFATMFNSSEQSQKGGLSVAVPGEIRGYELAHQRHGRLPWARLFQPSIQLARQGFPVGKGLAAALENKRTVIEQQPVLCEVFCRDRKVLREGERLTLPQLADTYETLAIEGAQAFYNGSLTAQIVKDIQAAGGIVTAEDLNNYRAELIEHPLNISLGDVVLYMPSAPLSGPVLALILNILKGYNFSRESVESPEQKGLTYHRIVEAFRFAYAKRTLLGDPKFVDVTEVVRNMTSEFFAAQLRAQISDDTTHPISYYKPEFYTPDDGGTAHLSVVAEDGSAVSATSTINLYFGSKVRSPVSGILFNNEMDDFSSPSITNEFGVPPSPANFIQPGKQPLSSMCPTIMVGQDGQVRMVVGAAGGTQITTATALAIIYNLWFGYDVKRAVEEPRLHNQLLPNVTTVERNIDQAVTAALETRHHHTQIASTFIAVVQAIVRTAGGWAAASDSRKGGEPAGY

Compound | relative γ-GTP activity value, human serum (γ-GTP (human serum) [1]) | relative γ-GTP activity value, porcine sample [2] | relative γ-GTP activity value, bovine sample [3] | Difference between max. and min. activity values (γ-GTP) | Solubility ([4]; 5° C.) [µM] | Average values (measured values of human sera) (γ-GTP (human sera)) | solubility and stability after dissolution versus γ-glutamyl-p-nitroanilide (in words) [5] | Km (γ-GTP (human serum) [6]) [µM] | Km (γ-GTP (porcine kidney) [7]) [µM] | further results
N[C@@H](CCC(=O)Nc1ccc([N+](=O)[O-])c(CCO)c1)C(=O)O [γ-L-glutamyl-3-(β-hydroxyethyl)-4-nitroanilide] | 95 | 87 | 85 | 10 | 10000 (≈ 3.11 mg/mL) |  |  |  |  | 
N[C@@H](CCC(=O)Nc1ccc([N+](=O)[O-])c(C(=O)O)c1)C(=O)O [γ-L-glutamyl-3-carboxy-4-nitroanilide, reference compound] | 103 | 127 | 94 | 33 | ≥ 100000 | 106.72 | much superior | 1190 | 1630 | difference in reactivity with γ-GTPs derived from various sources (in words) (γ-GTP; various sources of γ-GTP): vary more widely in reactivity with γ-GTPs derived from various sources
N[C@@H](CCC(=O)Nc1ccc([N+](=O)[O-])c(CO)c1)C(=O)O [γ-L-glutamyl-3-hydroxymethyl-4-nitroanilide] | 148 | 139 | 151 | 12 | ≥ 100000 | 115.94 |  |  |  | Km (γ-GTP (porcine kidney) [8]): 670 µM; Km (γ-GTP (bovine kidney)): 670 µM; Coefficient of correlation (γ-GTP (human sera); Example 7 vs Comparative Example 3, n=50 human sera): 0.9998; Coefficient of correlation (γ-GTP (human sera); Example 7 vs Comparative Example 4, n=50 human sera): 0.9998; within-run precision (in words) (γ-GTP (human sera); Table 5): good precision; Average (γ-GTP (human sera); sample 1, n=40): 66.4 IU/l; Coefficient of variation (C.V.) (γ-GTP (human sera); sample 1, n=40): 0.95; Maximum (γ-GTP (human sera); sample 1, n=40): 68 IU/l; Minimum (γ-GTP (human sera); sample 1, n=40): 66 IU/l; Average (γ-GTP (human sera); sample 2, n=40): 137.0 IU/l; Coefficient of variation (C.V.) (γ-GTP (human sera); sample 2, n=40): 0.83; Maximum (γ-GTP (human sera); sample 2, n=40): 139 IU/l; Minimum (γ-GTP (human sera); sample 2, n=40): 134 IU/l; linearity of calibration curve, upper limit [9]: about 6400 IU/l
N[C@@H](CCC(=O)Nc1ccc([N+](=O)[O-])c(S(=O)(=O)O)c1)C(=O)O [γ-L-glutamyl-3-sulfo-4-nitroanilide] |  |  |  |  |  |  | much superior |  |  | 
N[C@@H](CCC(=O)Nc1ccc([N+](=O)[O-])cc1)C(=O)O [γ-L-glutamyl-p-nitroanilide, reference compound] | 100 | 100 | 100 |  |  | 115.02 |  | 1330 | 1870 | Solubility ([4]; 37° C.): 5000 µM (≈ 1.34 mg/mL); solubility (in words) [10]: slightly soluble; stability (in words) ([5]; suitable pH range for dissolution): unstable
